Laboratory results taken from patent publication US20150011528A1, “PHENYLIMIDE-CONTAINING BENZOTHIAZOLE DERIVATIVE OF ITS SALT AND PHARMACEUTICAL COMPOSITION COMPRISING THE SAME” (YUHAN CORPORATION, priority 2011, published 2015).

Assays:
Assay type in all cases: cell-based
[1] = target: T1, interaction between the KRS protein and the laminin receptor (LR) (Homo sapiens, UniProt Q15046); assay: Yeast Two Hybrid inhibition of the interaction between the KRS protein and the laminin receptor (LR); details: 1 μL of 20 mM DMSO solution per 200 μL culture; 30° C., 6 days; absorbance 540 nm; non-treated control = 100%
T1 construct: expressed in transfected cells; host or cells: yeast EGY/SH cells
Experimental: The inhibitory activity against the interaction between the KRS protein and the laminin receptor (LR) was evaluated according to the Yeast Two Hybrid method described in WO2011/056021. According to the disclosures of WO2011/056021, we prepared a vector obtained by cloning the KRS gene in the LexA vector (Clontech) and a vector obtained by cloning the LR gene in the B42 vector (Clontech). The yeast cells, i.e., EGY/SH cells were co-transformed with the LexA-KRS vector and the B42-LR vector. The co-transformation was carried out using the Yeastmaker yeast transformation system2 kit (Clontech), according to the manufacturer's instruction. […] The cultured yeast cells were diluted with the said galactose medium, until the absorbance at 540 nm attains to about 0.15 to 0.2. The diluted culture (200 μL), containing the yeast cells, was added to each well of a 96-well plate. Each test compound was dissolved in dimethyl sulfoxide at a concentration of 20 mM and then the resulting solutions (1 μL) were added to each well. The plate was cultured at 30° C. for 6 days and then the absorbance of the each well was measured at 540 nm.
(§1) And also, specificity of the inhibitory activity was evaluated, using the yeast cells cotransformed with the LexA-KRS vector and the B42-AIMP2 vector; and the yeast cells co-transformed with the LexA-KRS vector and the B42-AIMP3 vector, which were respectively prepared according to WO2011/056021. The co-transformation was carried out using the Yeastmaker yeast transformation system2 kit (Clontech), according to the manufacturer's instruction. […] The cultured yeast cells were diluted with the said galactose medium, until the absorbance at 540 nm attains to about 0.15 to 0.2. The diluted culture (200 μL), containing the yeast cells, was added to each well of a 96-well plate. Each test compound was dissolved in dimethyl sulfoxide at a concentration of 20 mM and then the resulting solutions (1 μL) were added to each well. The plate was cultured at 30° C. for 6 days and then the absorbance of each well was measured at 540 nm. The respective yeast cell proliferation rates (%) in the treated samples were calculated in comparison with those of the non-treated control (100%) and the results thereof are shown in Table 1 below.
When KRS is bound to LR, the trans-activation domain is come close to the DNA-binding domain and the genes for synthesizing essential amino acids are expressed, which leads to normal growth of the transformed yeasts, thereby increasing the absorbance.

[2] = target: T2, binding between KRS and AIMP3 (Homo sapiens, UniProt Q15046); assay: Yeast Two Hybrid specificity test, LexA-KRS / B42-AIMP3 co-transformed yeast cells; details: 1 μL of 20 mM DMSO solution per 200 μL culture; 30° C., 6 days; absorbance 540 nm; non-treated control = 100%
T2 construct: expressed in transfected cells; host or cells: yeast cells (co-transformed)
Experimental: as §1

[3] = target: T3, binding between KRS and AIMP2 (Homo sapiens, UniProt Q15046); assay: Yeast Two Hybrid specificity test, LexA-KRS / B42-AIMP2 co-transformed yeast cells; details: 1 μL of 20 mM DMSO solution per 200 μL culture; 30° C., 6 days; absorbance 540 nm; non-treated control = 100%
T3 construct: expressed in transfected cells; host or cells: yeast cells (co-transformed)
Experimental: as §1

A549 cells = assay: Cell Migration Assay (transwell, laminin); details: laminin 10 μg/mL in lower well, test compounds 0.39˜100 μM, 6 hours at 37° C.
Experimental: Cell migration was measured with a 24-well transwell having a polycarbonate membrane (8.0 μm pore size, Costar) at the bottom of the upper chamber. Each lower well was treated with laminin (10 μg/mL) and test compounds (0.39˜100 μM) along with a serum-free RPMI1640 medium. A549 cells (Korean Cell Line Bank) were suspended in a serum-free RPMI1640 medium at a concentration of 1×10^6 cells/mL and then the test compounds were added thereto at the indicated concentrations. Each resulting solution (100 μL) was added to the upper chamber. The cells were cultured at 37° C. for 6 hours in a CO2 incubator. The upper chamber was taken out and then the cells were fixed with PBS containing 70% methyl alcohol for 10 minutes, followed by washing with PBS twice. The cells were stained with hematoxylin (Sigma) for 10 minutes and then washed with distilled water. The non-migrated cells were removed from the upper portion of the polycarbonate membrane with a cotton swab. The membranes were excised and separated from the chamber, and then mounted to a slide using a gel mount reagent (Biomeda, USA). The migrated cells (attached to the lower face of the membrane) were counted at three randomly selected sites under a microscope (×20). The cell counting was performed with the Image J program. From the counted cell numbers, each IC50 value was calculated by non-linear regression curve fit using the “GraphPad Prism” program.
The cells are pulled by laminin residing in the lower chamber and then passed through the polycarbonate membrane, so as to attach to the lower face of the membrane.

T3 sequence (Q15046 whole entry): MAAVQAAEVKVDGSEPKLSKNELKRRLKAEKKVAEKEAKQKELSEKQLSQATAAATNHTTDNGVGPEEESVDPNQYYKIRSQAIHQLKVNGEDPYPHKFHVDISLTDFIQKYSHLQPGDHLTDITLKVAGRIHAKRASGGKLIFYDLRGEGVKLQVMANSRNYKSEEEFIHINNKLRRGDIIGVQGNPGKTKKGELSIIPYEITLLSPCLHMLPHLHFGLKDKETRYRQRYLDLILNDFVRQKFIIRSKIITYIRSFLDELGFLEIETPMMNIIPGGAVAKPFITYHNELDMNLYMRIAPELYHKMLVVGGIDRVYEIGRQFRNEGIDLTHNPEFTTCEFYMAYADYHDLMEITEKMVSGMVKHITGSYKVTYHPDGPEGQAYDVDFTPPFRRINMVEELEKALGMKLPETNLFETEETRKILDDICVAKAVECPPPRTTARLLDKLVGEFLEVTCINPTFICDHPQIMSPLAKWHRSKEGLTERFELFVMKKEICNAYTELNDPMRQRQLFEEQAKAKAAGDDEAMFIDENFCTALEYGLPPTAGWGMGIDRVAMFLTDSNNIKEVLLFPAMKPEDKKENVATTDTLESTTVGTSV
T1 sequence (Q15046 whole entry): as above
T2 sequence (Q15046 whole entry): as above

Yeast cell proliferation rates KRS-LR (%) [1] [%]	Yeast cell proliferation rates KRS-AIMP3 (%) [2] [%]	Yeast cell proliferation rates KRS-AIMP2 (%) [3] [%]	IC50 (A549 cells; Homo sapiens) [µM]	IC50 (A549 cells) [µM]	Structure (SMILES)
–	–	–	22	–	CCC(C(=O)O)n1c(=NC(=O)c2cccc(Cl)c2)sc2c(F)c(F)c(F)cc21 (stereo not shown) [Example 417, 2-(2-((3-chlorobenzoyl)imino)-5,6,7-trifluorobenzo[d]thiazol-3(2H)-yl)butanoic acid]
–	–	–	43	–	CCC(C(=O)O)n1c(=NC(=O)c2cccc(Cl)c2)sc2c(F)cc(F)cc21 (stereo not shown) [Example 462, 2-(2-((3-chlorobenzoyl)imino)-5,7-difluorobenzo[d]thiazol-3(2H)-yl)butanoic acid]
34.3	93.2	96.7	–	–	CC(C(=O)O)n1c(=NC(=O)c2ccc(F)c(F)c2)sc2cc(F)c(F)cc21 (stereo not shown) [Example 463, 2-(2-((3,4-difluorobenzoyl)imino)-5,6-difluorobenzo[d]thiazol-3(2H)-yl)propionic acid]
–	–	–	49	–	CC(C(=O)O)n1c(=NC(=O)c2ccc(F)c(Cl)c2)sc2cc(F)c(F)cc21 (stereo not shown) [Example 466, 2-(2-((3-chloro-4-fluorobenzoyl)imino)-5,6-difluorobenzo[d]thiazol-3(2H)-yl)propionic acid]
–	–	–	19	–	CCC(C(=O)O)n1c(=NC(=O)c2ccc(F)c(Cl)c2)sc2cc(F)c(F)cc21 (stereo not shown) [Example 467, 2-(2-((3-chloro-4-fluorobenzoyl)imino)-5,6-difluorobenzo[d]thiazol-3(2H)-yl)butanoic acid]
–	–	–	41	–	CCC(C(=O)O)n1c(=NC(=O)c2cc(Cl)cc(Cl)c2)sc2cc(F)c(F)cc21 (stereo not shown) [Example 468, 2-(2-((3,5-dichlorobenzoyl)imino)-5,6-difluorobenzo[d]thiazol-3(2H)-yl)butanoic acid]
–	–	–	–	66	CCC(C(=O)O)n1c(=NC(=O)c2cc(F)cc(C(F)(F)F)c2)sc2cc(F)c(F)cc21 (stereo not shown) [Example 469]
–	–	–	–	32	CCC(C(=O)O)n1c(=NC(=O)c2ccc(F)c(C(F)(F)F)c2)sc2cc(F)c(F)cc21 (stereo not shown) [Example 471]

The next lines start with the compound.

Structure (SMILES)	Yeast cell proliferation rates KRS-LR (%) [1] [%]	Yeast cell proliferation rates KRS-AIMP3 (%) [2] [%]	Yeast cell proliferation rates KRS-AIMP2 (%) [3] [%]	IC50 (A549 cells; Homo sapiens) [µM]	IC50 (A549 cells) [µM]
CCOc1ccc2c(c1)sc(=NC(=O)c1ccc(C)cc1)n2C(CC)C(=O)O (stereo not shown) [Example 7, 2-{6-ethoxy-2-[(4-methylbenzoyl)imino]benzo[d]thiazol-3(2H)-yl}butanoic acid]	36.9	100.1	106.4	–	–
CCC(C(=O)O)n1c(=NC(=O)c2ccc(C)cc2)sc2cccc(OC)c21 (stereo not shown) [Example 8, 2-{4-methoxy-2-[(4-methylbenzoyl)imino]benzo[d]thiazol-3(2H)-yl}butanoic acid]	17.4	84.1	84.6	–	–
Cc1ccc(C(=O)N=c2sc3ccc(F)cc3n2C(C)C(=O)O)cc1 (stereo not shown) [Example 91, 2-[5-fluoro-2-(4-methylbenzoylimino)benzo[d]thiazol-3(2H)-yl]propionic acid]	27.8	98.5	116.6	–	–
CCC(C(=O)O)n1c(=NC(=O)c2ccc(C)cc2)sc2cc3c(cc21)OCO3 (stereo not shown) [Example 237, 2-(6-((4-methylbenzoyl)imino)-[1,3]dioxolo[4′,5′:4,5]benzo[1,2-d]thiazol-7(6H)-yl)butanoic acid]	34.1	114.8	99.0	–	–
CCC(C(=O)O)n1c(=NC(=O)c2ccc(C)cc2)sc2c(F)c(F)ccc21 (stereo not shown) [Example 335, 2-(6,7-difluoro-2-((4-methylbenzoyl)imino)benzo[d]thiazol-3(2H)-yl)butanoic acid]	10.8	105.3	101.6	–	–
CC(C(=O)O)n1c(=NC(=O)c2cccc(Cl)c2)sc2c(F)c(F)ccc21 (stereo not shown) [Example 337, 2-(2-((3-chlorobenzoyl)imino)-6,7-difluorobenzo[d]thiazol-3(2H)-yl)propionic acid]	12.3	100.3	92.5	–	–
CCC(C(=O)O)n1c(=NC(=O)c2ccc(C)cc2)sc2c(C)cccc21 (stereo not shown) [Example 344, 2-(7-methyl-2-((4-methylbenzoyl)imino)benzo[d]thiazol-3(2H)-yl)butanoic acid]	11.7	102.8	99.0	–	–
Cc1cccc2c1sc(=NC(=O)c1cccc(Cl)c1)n2C(C)C(=O)O (stereo not shown) [Example 353, 2-(2-((3-chlorobenzoyl)imino)-7-methylbenzo[d]thiazol-3(2H)-yl)propionic acid]	28.2	99.5	89.4	–	–
CCC(C(=O)O)n1c(=NC(=O)c2cccc(Cl)c2)sc2c(C)cccc21 (stereo not shown) [Example 354, 2-(2-((3-chlorobenzoyl)imino)-7-methylbenzo[d]thiazol-3(2H)-yl)butanoic acid]	30.2	106.4	103.0	–	–
CC(C(=O)O)n1c(=NC(=O)c2cccc(C(F)(F)F)c2)sc2ccc(F)cc21 (stereo not shown) [Example 355, 2-(5-fluoro-2-((3-(trifluoromethyl)benzoyl)imino)benzo[d]thiazol-3(2H)-yl)propionic acid]	22.1	104.4	97.2	–	–
CC(C(=O)O)n1c(=NC(=O)c2cccc(C(F)(F)F)c2)sc2ccc(Cl)cc21 (stereo not shown) [Example 359, 2-(5-chloro-2-((3-(trifluoromethyl)benzoyl)imino)benzo[d]thiazol-3(2H)-yl)propionic acid]	21.9	107.0	101.6	–	–
COc1ccc2c(sc(=NC(=O)c3cccc(Cl)c3)n2CC(=O)O)c1F [Example 396, 2-(2-((3-chlorobenzoyl)imino)-7-fluoro-6-methoxybenzo[d]thiazol-3(2H)-yl)acetic acid]	–	–	–	43	–
CC(C(=O)O)n1c(=NC(=O)c2cccc(Cl)c2)sc2c(F)c(F)c(F)cc21 (stereo not shown) [Example 416, 2-(2-((3-chlorobenzoyl)imino)-5,6,7-trifluorobenzo[d]thiazol-3(2H)-yl)propionic acid]	24.7	99.3	99.6	–	–
CCOc1ccc2c(sc(=NC(=O)c3cccc(Cl)c3)n2C(CC)C(=O)O)c1F (stereo not shown) [Example 427, 2-(2-((3-chlorobenzoyl)imino)-6-ethoxy-7-fluorobenzo[d]thiazol-3(2H)-yl)butanoic acid]	–	–	–	18	–
Cc1ccc(C(=O)N=c2sc3c(F)cc(F)cc3n2C(C)C(=O)O)cc1 (stereo not shown) [Example 455, 2-(5,7-difluoro-2-((4-methylbenzoyl)imino)benzo[d]thiazol-3(2H)-yl)propionic acid]	–	–	–	80	–
